Common to all, as to experiment: NCI-60 cell line screen, 48 h
The subject of test [1] is BT-549.
The test system of test [2] is CCRF-CEM.
Test [3] relates to HCC 2998.
In test [4] the test system is HCT-116.
The test system of test [5] is HCT-15.
Test [6] concerns HL-60.
Test [7] has as its system HOP-62.
Test [8] concerns M14.
Test [9] deals with MDA-MB-231.
The test system of test [10] is NCI-H23.
Test [11] deals with NCI-H460.
Test [12] concerns OVCAR-5.
The subject of test [13] is PC-3.
Test [14] has as its system RPMI-8226.
Test [15] relates to SK-MEL-28.
Test [16] concerns SK-MEL-2.
Test [17] deals with SNB-19.
Test [18] deals with T47D.
Test [19] deals with U-251.
Test [20] relates to UACC-62.

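Assay format: 96-well plates, 48-hour exposure. GI50: concentration for 50% inhibition of growth.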 The source made the active and inactive calls. Rule as the data show it: active = GI50 up to about 1.1 µM and inactive = higher.

With `O=C(O)C(Cc1ccc2c(c1)CCC2)(Cc1ccc2c(c1)CCC2)C(=O)O`, the GI50 was > 100 µM (inactive) in test [1]; > 100 µM (inactive) in test [2]; > 100 µM (inactive) in test [3]; > 100 µM (inactive) in test [4]; over 100 µM in [5]; > 100 µM (inactive) in test [6]. The GI50 in [7] is > 100 µM (inactive); in test [8], > 100 µM (inactive); in test [9] it was 29.2 µM (inactive); in [10], > 100 µM (inactive); in [11], > 100 µM (inactive); in test [12] it was > 100 µM (inactive). Further, the GI50 in test [13], in [14], in test [15], in test [16], in test [17] and in [18] was > 100 µM (inactive) throughout. Further, the GI50 in test [19] and in test [20] was > 100 µM (inactive) in each case.
As to `N#Cc1c(Nc2nc3ccccc3s2)c2ccccc2n2c1nc1ccccc12`, the GI50 in [1] was > 100 µM (inactive); in [3], > 100 µM (inactive); in test [4], > 100 µM (inactive); in [5], over 100 µM; in [6] it was > 100 µM (inactive); in [7], 27.1 µM (inactive). The GI50 in test [8] is > 100 µM (inactive); in test [9] it was 48.4 µM (inactive); in test [10] it was > 100 µM (inactive); in test [11], > 100 µM (inactive); in [12], > 100 µM (inactive); in [13] it was > 100 µM (inactive). Also, the GI50 was > 100 µM (inactive) in test [14]; > 100 µM (inactive) in [15]; > 100 µM (inactive) in [16]; > 100 µM (inactive) in [17]; > 100 µM (inactive) in [18]; 90.8 µM (inactive) in test [19]. Further, the GI50 in [20] was > 100 µM (inactive).
For `C=C1[C@@H]([C@@]2(C)C=CC(=O)C(C)(C)[C@@H]2CC(=O)OC)CC[C@@]2(C)[C@H](c3ccoc3)OC(=O)[C@H]3O[C@]132` [ANDIROBIN], the GI50 in test [1] was > 100 µM (inactive); in [2], > 100 µM (inactive); in [3] it was > 100 µM (inactive); in test [4], > 100 µM (inactive); in test [5], over 100 µM; in [6], 62.8 µM (inactive). Further, the GI50 in [8] is > 100 µM (inactive); in test [9] it was > 100 µM (inactive); in [10] it was > 100 µM (inactive); in [11] it was > 100 µM (inactive); in test [12] it was > 100 µM (inactive); in test [13] it was 40.7 µM (inactive). Moreover, the GI50 in [15] was > 100 µM (inactive); in test [16] it was > 100 µM (inactive); in [17], > 100 µM (inactive); in [18], 94.4 µM (inactive); in [19], > 100 µM (inactive); in test [20], 77.4 µM (inactive).
For `Cc1[nH]c2ncn(N)c(=N)c2c1Cc1ccccc1`, the GI50 in test [1] was > 100 µM (inactive); in test [2] it was > 100 µM (inactive); in test [3], > 100 µM (inactive); in test [4], > 100 µM (inactive); in [5], over 100 µM; in [6], 17.8 µM (inactive). The GI50 in test [7] was 47.2 µM (inactive); in test [8] it was > 100 µM (inactive); in [9], > 100 µM (inactive); in [10] it was > 100 µM (inactive); in test [12], > 100 µM (inactive); in test [13], 30.6 µM (inactive). Moreover, the GI50 was > 100 µM (inactive) in test [14]; > 100 µM (inactive) in test [15]; > 100 µM (inactive) in [16]; > 100 µM (inactive) in test [17]; 4.35 µM (inactive) in test [18]; > 100 µM (inactive) in [19]. For the same molecule, the GI50 in [20] was 58.1 µM (inactive).
Regarding `COc1cc(OC)cc(Oc2nc3c(N)cc(C(F)(F)F)cc3nc2-c2ccccc2)c1`, the GI50 in [1] is > 100 µM (inactive); in test [2] it was 12.8 µM (inactive); in test [3] it was 24.3 µM (inactive); in test [4], 22.6 µM (inactive); in [5] it was 18.1 µM; in [6] it was 16.6 µM (inactive). In addition, the GI50 in test [7] was > 100 µM (inactive); in test [8], 49.3 µM (inactive); in test [9], 28.9 µM (inactive); in test [10] it was 92.7 µM (inactive); in test [11], 30.2 µM (inactive); in [13], 26.2 µM (inactive). Besides, the GI50 in test [14] is 16.4 µM (inactive); in [15], 61.8 µM (inactive); in test [16], 20 µM (inactive); in [17], 95.7 µM (inactive); in test [18] it was 3.14 µM (inactive); in test [19] it was 44.8 µM (inactive). Further, the GI50 in test [20] is > 100 µM (inactive).
With `Cc1ccc2ccc3ccc(C)nc3c2n1` [NEOCUPROINE], the GI50 was > 100 µM (inactive) in test [1]; 0.59 µM (active) in [2]; 6.38 µM (inactive) in test [3]; 0.349 µM (active) in test [4]; over 71.6 µM in [5]; 0.353 µM (active) in [6]. The GI50 in test [7] was 4.68 µM (inactive); in test [8], > 22.2 µM (inactive); in test [9], 5.62 µM (inactive); in test [10], 0.439 µM (active); in test [11] it was 2.19 µM (inactive); in test [13], 2.1 µM (inactive). Also, the GI50 in [14] was > 100 µM (inactive); in [15], > 100 µM (inactive); in test [16], > 100 µM (inactive); in test [17] it was > 100 µM (inactive); in test [18] it was 1.06 µM (active); in test [19], 7.31 µM (inactive). In addition, the GI50 in test [20] was 3.03 µM (inactive).
`CC(=O)OC12C3C4C1C1C2C3C41OC(C)=O` (stereo not drawn): the GI50 in test [1] was > 100 µM (inactive); in test [2], > 100 µM (inactive); in [3], > 100 µM (inactive); in test [4], > 100 µM (inactive); in test [5], over 100 µM; in [6] it was > 100 µM (inactive). The GI50 in [7], in test [8], in test [9], in [10], in [11] and in test [12] was > 100 µM (inactive) throughout. In addition, the GI50 in test [13], in [14], in test [15], in test [16], in [18] and in test [19] was > 100 µM (inactive) in each case. Further, in [20], the GI50 is > 100 µM (inactive).
Consider `C=Cc1nc(C#N)c(N)o1`, for which the GI50 was > 100 µM (inactive) in test [1]; > 100 µM (inactive) in test [2]; > 100 µM (inactive) in [3]; > 100 µM (inactive) in test [4]; over 100 µM in [5]; > 100 µM (inactive) in test [6]. Also, the GI50 in test [7], in test [8], in [9], in test [10], in test [11] and in test [12] was > 100 µM (inactive) throughout. Besides, the GI50 in test [13], in test [14], in test [15], in [16], in [17] and in test [18] was > 100 µM (inactive) each time. Besides, the GI50 in [19] is > 100 µM (inactive).
Take `COc1cc2ccc(C(=O)NCCCNC(=O)c3ccc4cc(OC)c(OC)cc4c3)cc2cc1OC`: the GI50 in test [1] is > 100 µM (inactive); in test [2], > 100 µM (inactive); in test [3], > 100 µM (inactive); in test [4] it was > 100 µM (inactive); in test [5] it was over 100 µM; in test [6], > 100 µM (inactive). The GI50 in test [7] is > 100 µM (inactive); in [8], > 100 µM (inactive); in [9] it was 97.1 µM (inactive); in [10], > 100 µM (inactive); in [11], 33.7 µM (inactive); in test [12], > 100 µM (inactive). In addition, the GI50 in test [13], in test [15], in test [16], in [17], in [18] and in [19] was > 100 µM (inactive) in each case. Besides, in test [20], the GI50 is > 100 µM (inactive).
For `N#CC(N)c1ccc(OCCCCCCCCCCOc2ccc(C(N)C#N)cc2)cc1` (stereo not drawn), the GI50 in test [1] is > 100 µM (inactive); in test [2], 13.8 µM (inactive); in [3], > 100 µM (inactive); in [4], 80 µM (inactive); in test [5], over 100 µM; in [6] it was 52.1 µM (inactive). Moreover, the GI50 in test [8], in test [9], in [10], in test [11], in test [12] and in test [13] was > 100 µM (inactive) in each case. Besides, the GI50 in test [15] was > 100 µM (inactive); in [16] it was 81.8 µM (inactive); in test [17] it was > 100 µM (inactive); in test [18], 84.1 µM (inactive); in [19], 65.3 µM (inactive); in test [20] it was > 100 µM (inactive).
As to `NCC(=O)N1CCN(c2nc(N3CCCC3)c3nc(Cl)c(NCc4ccccc4)nc3n2)CC1`, the GI50 in [1] was 2.09 µM (inactive); in test [2], 2.49 µM (inactive); in test [3] it was 1.66 µM (inactive); in test [4], 1.79 µM (inactive); in test [5] it was 1.97 µM; in test [6], 1.81 µM (inactive). For the same molecule, the GI50 in test [7] is 1.56 µM (inactive); in test [8], 1.72 µM (inactive); in test [9], 1.85 µM (inactive); in test [10] it was 1.95 µM (inactive); in test [11], 1.85 µM (inactive); in test [12] it was 2.91 µM (inactive). In addition, the GI50 is 2.48 µM (inactive) in test [13]; 2.23 µM (inactive) in test [15]; 1.86 µM (inactive) in [16]; 1.82 µM (inactive) in [17]; 1.42 µM (inactive) in test [18]; 1.71 µM (inactive) in test [19]. Moreover, the GI50 in test [20] was 1.8 µM (inactive).

Values taken from ChEMBL document CHEMBL1201862, “PubChem BioAssay data set” (2004).
